Experimental data: patent publication US12624007B2, “Naphthalimide sulfonate derivative, and photoacid generator and photoresist composition which comprise same” (SAMYANG CORPORATION, priority 2020, dated 2026)

Tests used:
[1] = Measurement of solubility of photoacid generators in photoresist solvents; conditions: for Solubility PGMEA: solvent PGMEA; for Solubility Cyclohexane: solvent cyclohexane
[2] = Thermal stability by thermogravimetric analyzer (5% weight loss temperature); type: physicochemical
From the text: Measurement of Thermal Stability
If a photoacid generator is thermally stable in a photoresist preparation process, a very good effect in terms of stability can be expected.

Structure (SMILES) | Solubility PGMEA [1] | Solubility Cyclohexane [1] | Temperature at which 5% weight loss occurred [2] [°C]
O=C1c2cccc3c(CC4CC4)ccc(c23)C(=O)N1OS(=O)(=O)C(F)(F)F [Compound 1, 4-cyclopropanemethyl-naphthalimide trifluoromethane sulfonate] | 9.2 w/v; % | 26.1 w/v; % | 242
O=C1c2cccc3c(CC4CCCCC4)ccc(c23)C(=O)N1OS(=O)(=O)C(F)(F)F [Compound 5] | 3.1 w/v; % | 7.8 w/v; % | 252
O=C1c2cccc3c(CCCC4CCCC4)ccc(c23)C(=O)N1OS(=O)(=O)C(F)(F)F [Compound 9] | 6.3 w/v; % | 21.3 w/v; % | 258
CC(C)(C)c1cc2c3c(ccc(CC4CCCCC4)c3c1)C(=O)N(OS(=O)(=O)C(F)(F)F)C2=O [Compound 19] | 11.0 w/v; % | 31.2 w/v; % | 236
O=C1c2cccc3cccc(c23)C(=O)N1OS(=O)(=O)C(F)(F)F [Formula V, reference compound] |  |  | 223
